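48-hour exposure; five concentrations; linearly interpolated endpoints. The concentration for 50% growth inhibition is given as GI50.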 Activity calls are given as the source filed them. No stated cut-off is given here; in the data, active = GI50 up to about 1.1 µM and inactive = higher.
Experiments:
Assay in all cases: inhibition of tumour cell growth, NCI panel, 48 h
SK-MEL-28 = test system: SK-MEL-28
SR = test system: SR
HCT-15 = test system: HCT-15
MDA-MB-435 = test system: MDA-MB-435
OVCAR-5 = test system: OVCAR-5
NCI/ADR-RES = test system: NCI/ADR-RES
A498 = test system: A498
HCT-116 = test system: HCT-116
SK-OV-3 = test system: SK-OV-3
HCC 2998 = test system: HCC 2998
HOP-92 = test system: HOP-92
MOLT-4 = test system: MOLT-4
SF-539 = test system: SF-539
CCRF-CEM = test system: CCRF-CEM
LOX IMVI = test system: LOX IMVI
OVCAR-8 = test system: OVCAR-8
MCF7 = test system: MCF7
DU-145 = test system: DU-145
PC-3 = test system: PC-3
A549 = test system: A549

Compound | GI50 (SK-MEL-28) | GI50 (SR) | GI50 (HCT-15) | GI50 (MDA-MB-435) | GI50 (OVCAR-5) | GI50 (NCI/ADR-RES) | GI50 (A498) | GI50 (HCT-116) | GI50 (SK-OV-3) | GI50 (HCC 2998) | GI50 (HOP-92) | GI50 (MOLT-4) | GI50 (SF-539) | GI50 (CCRF-CEM) | GI50 (LOX IMVI) | GI50 (OVCAR-8) | GI50 (MCF7) | GI50 (DU-145) | GI50 (PC-3) | GI50 (A549)
COc1nc2c(c(=O)n1C)N(C(C)=O)C1C(N2)OCC(OC(C)=O)C1OC(C)=O (stereo not given) | > 10 µM (inactive) | > 10 µM (inactive) | > 10 µM | > 10 µM (inactive) | > 10 µM (inactive) | > 10 µM (inactive) | > 10 µM (inactive) | > 10 µM (inactive) | > 10 µM (inactive) | > 10 µM (inactive) | > 10 µM (inactive) | > 10 µM (inactive) | > 10 µM (inactive) | > 10 µM (inactive) | > 10 µM (inactive) | > 10 µM (inactive) | > 10 µM (inactive) | > 10 µM (inactive) | > 10 µM (inactive) | > 10 µM (inactive)
CCOC(=O)c1cccc(/N=N/c2ncc(/C=C/C(=O)OC)[nH]2)c1 | 27 µM (inactive) | 4.12 µM (inactive) | 9.59 µM | 28 µM (inactive) | 55 µM (inactive) | 22 µM (inactive) | 20.8 µM (inactive) | 18.2 µM (inactive) | 55.7 µM (inactive) | 17.9 µM (inactive) | 32.1 µM (inactive) | 6.97 µM (inactive) | 21.5 µM (inactive) | 6 µM (inactive) | 15.3 µM (inactive) | 17.3 µM (inactive) | 21.6 µM (inactive) | 19.1 µM (inactive) | 24.3 µM (inactive) | 24.5 µM (inactive)
CSC1(SC)CCCCCCCCCCC1 | 44.9 µM (inactive) | 43.7 µM (inactive) | 48.1 µM | 38.9 µM (inactive) | 53.2 µM (inactive) | 41.2 µM (inactive) | > 100 µM (inactive) | 17 µM (inactive) | 83.9 µM (inactive) | 20.4 µM (inactive) | 36.8 µM (inactive) | 33.7 µM (inactive) | > 100 µM (inactive) | 22.9 µM (inactive) | 18.7 µM (inactive) | 45.5 µM (inactive) | 21.3 µM (inactive) | 55.3 µM (inactive) | 40.9 µM (inactive) | 31.6 µM (inactive)
CC(C)(C)c1c2c(c(C(C)(C)C)c3c1OCN(Cc1ccccc1)C3)OCN(Cc1ccccc1)C2 | 29.6 µM (inactive) | 18.9 µM (inactive) | 16.5 µM | 28.5 µM (inactive) | 13.4 µM (inactive) | 19.6 µM (inactive) | 6 µM (inactive) | 11.3 µM (inactive) | 22.6 µM (inactive) | 10.5 µM (inactive) | 12 µM (inactive) | 18.2 µM (inactive) | 16 µM (inactive) | 28 µM (inactive) | 16.3 µM (inactive) | 26.2 µM (inactive) | 11 µM (inactive) | 22.6 µM (inactive) | 16.6 µM (inactive) | 17.6 µM (inactive)
C[C@@H]1C[C@@H]2OC(=O)[C@]3(C)[C@H]2[C@@H](OC3(C)O)[C@]2(C)C(=O)C=C[C@@H]12 (stereo not given in full) [TENULIN] | 18.3 µM (inactive) | 5.18 µM (inactive) | 10.1 µM | 24.2 µM (inactive) | 19.9 µM (inactive) | > 100 µM (inactive) | 22.6 µM (inactive) | 16.6 µM (inactive) | > 100 µM (inactive) | 17.2 µM (inactive) | 17.5 µM (inactive) | 16.4 µM (inactive) | 32.1 µM (inactive) | 4.68 µM (inactive) | 19.2 µM (inactive) | 32.4 µM (inactive) | 15.7 µM (inactive) | 39.6 µM (inactive) | 87.9 µM (inactive) | > 100 µM (inactive)
C=CCC1(Sc2ccccn2)Sc2ccc3ccccc3c2-c2c(ccc3ccccc23)S1 | > 100 µM (inactive) | > 100 µM (inactive) | > 100 µM | > 100 µM (inactive) | > 100 µM (inactive) | > 100 µM (inactive) | > 100 µM (inactive) | > 100 µM (inactive) | > 100 µM (inactive) | > 100 µM (inactive) | > 100 µM (inactive) | > 100 µM (inactive) | > 100 µM (inactive) | > 100 µM (inactive) | > 100 µM (inactive) | > 100 µM (inactive) | > 100 µM (inactive) | > 100 µM (inactive) | > 100 µM (inactive) | > 100 µM (inactive)
